Patent US10173988B2, “N2-(3,4-dimethylphenyl)-6-((4-(p-tolyl)piperazin-1-yl)methyl)-1,3,5-triazine-2,4-diamine” (GLUCOX BIOTECH AB, priority 2015, dated 2019)

Legend:
[1] = molecular target: human Nox1 (Homo sapiens (Human), UniProt Q9Y5S8); assay: Nox1 whole cell luminescence assay (luminol, PMA-stimulated); format: cell-based; conditions: CHO cells stably expressing human Nox1
Protocol: CHO cells modified to stably express human Nox1 were grown in DMEM/F12 gibco 31331 containing 10% FBS and 1% pen/strep at 37° C. in air with 5% CO2. Cells were collected from cultures by Trypsin mediated detachment of adherent cells.
A luminescence assay was used that measures the production of reactive oxygen species in whole cells. Luminol reacts with superoxide and emits light and light is measured with luminometer (Synergy/2 microplate reader, BioTek).
Inhibitors were diluted in a compound plate in DMSO (100%) then transferred to Hanks buffer solution and in assay plate DMSO were 2% in all the wells.
Assay procedure, final well volume 100 μl, 96-well plate: Inhibitors (20 μl) were added, then cell suspension was (100 000 cells/well), incubate 37° C. for 30 min, add PMA (0.9 μM/well) to Luminol reaction mix (Luminol 0.1 mM/well and HRP 3.2 U/well) then this stimulation mix into wells. The plate were then immediately read (steps 5 min each reading) and for 1 h. Data was calculated for the linear part of the curve and IC50 determined.
Compounds (Nox inhibitors) were diluted at 3× working concentration and titrated from 200 μM to 0.003 μM in 11 steps

[2] = molecular target: Nox2 (Homo sapiens (Human), UniProt P04839); assay: Nox2 whole cell assay in isolated neutrophils (isoluminol, PMA-stimulated); format: cell-based; conditions: PMA 30 ng/ml
Sequence of Nox2 (P04839 2-570): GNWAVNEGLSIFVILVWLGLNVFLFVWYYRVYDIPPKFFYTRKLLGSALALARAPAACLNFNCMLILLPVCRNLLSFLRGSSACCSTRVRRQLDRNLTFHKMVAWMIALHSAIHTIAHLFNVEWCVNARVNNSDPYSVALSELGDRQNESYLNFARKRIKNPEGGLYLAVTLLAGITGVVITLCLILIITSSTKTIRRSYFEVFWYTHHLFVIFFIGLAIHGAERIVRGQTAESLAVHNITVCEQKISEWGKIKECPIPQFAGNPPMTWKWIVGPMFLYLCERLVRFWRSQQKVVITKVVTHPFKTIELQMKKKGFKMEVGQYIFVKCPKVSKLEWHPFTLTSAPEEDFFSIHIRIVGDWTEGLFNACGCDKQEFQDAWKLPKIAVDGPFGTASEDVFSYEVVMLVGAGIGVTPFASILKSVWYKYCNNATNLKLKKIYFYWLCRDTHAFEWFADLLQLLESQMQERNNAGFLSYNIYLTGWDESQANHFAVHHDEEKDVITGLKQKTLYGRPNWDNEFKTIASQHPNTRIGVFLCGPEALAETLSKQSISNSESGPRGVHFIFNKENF
Sequence of Nox2 (P13498 2-195 partner): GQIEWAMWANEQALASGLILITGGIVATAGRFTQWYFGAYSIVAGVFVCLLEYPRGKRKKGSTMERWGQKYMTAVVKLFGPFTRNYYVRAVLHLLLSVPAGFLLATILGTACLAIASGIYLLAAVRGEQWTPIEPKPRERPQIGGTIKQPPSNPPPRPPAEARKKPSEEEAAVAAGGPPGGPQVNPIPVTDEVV
From the text: Cells: Human blood was purchased in buffy coat, prepared the same day for isolation of neutrophils, from Labjoy AB, Lund, Sweden. Blood components were separated by density gradient centrifugation using Ficoll-Paque Plus. Plasma, PBMCs and Ficoll were removed before erythrocytes were removed by dextran sedimentation. Remaining erythrocytes were lyses before neutrophils were washed and counted. Isolated neutrophils were kept on ice resuspended in HBSS without Mg and Ca until assayed.
Buffers: The isoluminol buffer contained Isoluminol (0.175 mg/ml) and HRP fraction II (1.75 U/ml). The buffer was prepared by diluting these ingredients at 4× working concentration in HBSS.
Procedures: Compounds (Nox inhibitors) were diluted at 4× working concentration and titrated from 100 μM to 0.006 μM in 1:4 steps. PMA was diluted in Isoluminol buffer at 4× working concentration for a final concentration of 30 ng/ml. […] 25 μl diluted compound or control/well were added to a white 96-well plate. 25 μl/well of PMA diluted in Isoluminol buffer was added to each well. To non-stimulated control wells only Isoluminol buffer was added. Neutrophils were washed and resuspended at 2×10^6 cells/ml in HBSS with Mg and Ca just before adding 50 μl of the neutrophil cell suspension/well, which was followed by immediate initiation of luminescence measurement. Luminescence was measured using a FluoStar Optima (BMG Labtech). Graphs were performed using Prism 5 for Mac OS X (Prism 5.0 Software, San Diego Calif. USA).

[3] = molecular target: Nox4 (Homo sapiens (Human), UniProt Q9NPH5); assay: Nox4 whole cell assay (Amplex red, hydrogen peroxide); format: cell-based; conditions: HEK (CJ Nox4) cells stably expressing Nox4
Sequence of Nox4 (Q9NPH5 whole entry, species assumed): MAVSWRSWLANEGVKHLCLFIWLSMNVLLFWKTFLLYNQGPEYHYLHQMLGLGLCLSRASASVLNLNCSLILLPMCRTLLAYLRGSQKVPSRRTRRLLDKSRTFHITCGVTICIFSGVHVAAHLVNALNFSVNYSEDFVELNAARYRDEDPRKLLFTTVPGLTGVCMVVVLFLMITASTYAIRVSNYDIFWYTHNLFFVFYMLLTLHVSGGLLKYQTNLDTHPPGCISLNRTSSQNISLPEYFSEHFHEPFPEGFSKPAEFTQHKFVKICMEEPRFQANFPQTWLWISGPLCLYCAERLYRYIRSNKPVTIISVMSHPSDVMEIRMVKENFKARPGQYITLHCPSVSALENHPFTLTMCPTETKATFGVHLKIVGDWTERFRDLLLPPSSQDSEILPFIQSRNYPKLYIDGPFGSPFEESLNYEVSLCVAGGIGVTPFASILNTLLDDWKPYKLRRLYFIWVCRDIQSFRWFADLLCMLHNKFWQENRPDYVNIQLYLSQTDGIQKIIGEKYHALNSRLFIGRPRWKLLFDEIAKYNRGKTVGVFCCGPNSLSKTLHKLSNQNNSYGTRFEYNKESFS
Sequence of Nox4 (P13498 2-195 partner, species assumed): as the sequence (P13498 2-195 partner) above
Protocol: Cells: HEK (CJ Nox4) stably expressing Nox4 was purchased from Redoxis AB (Lund). The adherent cells were cultivated in RPMI 1640 with L-Glutamine were supplemented with FBS (10%), penicillin (10 U/ml) streptomycin (100 μg/ml) and neomycin (200 μg/ml) at 37° C. in air with 5% CO^2.
Hydrogen peroxide produced by Nox4 was measured (fluorescence emission: 590 and excitation: 544) using Amplex red (Molecular Probes) in Fluorescan Ascent plate reader Type 374. Cells were collected from cultures by Trypsin mediated detachment of adherent cells. Cells were seeded in 96-well plates at a density of 50 000 cells in […] assay volume. […] Nox4 activity was measured up to 100 min with readings every minute. […] Y-axes: turnover of hydrogen peroxide; x-axes: concentration of inhibitor. Inhibitors were diluted in a compound plate in DMSO (100%) then transferred to Hanks buffer solution and in assay plate DMSO were 2% in all the wells.
Compounds (Nox inhibitors) were diluted at 3× working concentration and titrated from 200 μM to 0.003 μM in 11 steps.

[4] = Caco-2 permeability assay; format: in vitro ADME; conditions: human, Caco-2; for efflux ratio at 60 min: Papp (b-a) divided by Papp (a-b); for Papp A→B at 60 min: apical to basolateral; for Papp A→B at 60 min / Papp B→A at 60 min: pH 7.4, 37° C., test concentration 1 to 10 μM; for Papp B→A at 60 min: basolateral to apical
Protocol: (§1) Caco-2 membrane permeability was performed in accordance with published protocols. [Hubatch] Caco-2 cell monolayers (passage 94-105) were grown on permeable filter support and used for transport study on day 21 after seeding. Prior to the experiment a drug solution of 10 μM was prepared and warmed to 37° C.
(§2) The Caco-2 filters were washed with prewarmed HBSS prior to the experiment, and thereafter experiment was started by applying the donor solution on the apical side or basolateral side, depending on which direction that was monitored. The transport experiments were carried out at pH 7.4 in both the apical and basolateral chambers. The experiments were performed at 37° C. and with a stirring rate of 500 rpm. The receiver compartment was sampled at 15, 30, and 60 min, and at 60 min also a final sample from the donor chamber was taken in order to calculate the mass balance of the compound. Directly after the termination of experiment the filter inserts were washed with prewarmed HBSS and the membrane integrity was checked. This was performed by trans-epithelial electrical resistance (TEER) measurement. The experiment was validated by inclusion of the para-cellular marker 14Cmannitoland monitoring its permeability during the experiments. Mannitol is a para-cellular marker used for cell monolayer integrity measurements.
(§3) Test compounds were thus added to either the apical or basolateral side of the Caco-2 cell layer, to measure permeability in the absorptive (apical to basolateral, Papp (a-b)) or secretive (basolateral to apical Papp (a-b) directions, respectively. The efflux is calculated as Papp (b-a) divided by Papp (a-b). The results are presented in Table 3.

[5] = test system: Caco-2 cell monolayers; assay: Caco-2 permeability assay; format: in vitro ADME; conditions: mass balance
Protocol: as §1, §2, §3

Sequence of human Nox1 (Q9Y5S8 whole entry): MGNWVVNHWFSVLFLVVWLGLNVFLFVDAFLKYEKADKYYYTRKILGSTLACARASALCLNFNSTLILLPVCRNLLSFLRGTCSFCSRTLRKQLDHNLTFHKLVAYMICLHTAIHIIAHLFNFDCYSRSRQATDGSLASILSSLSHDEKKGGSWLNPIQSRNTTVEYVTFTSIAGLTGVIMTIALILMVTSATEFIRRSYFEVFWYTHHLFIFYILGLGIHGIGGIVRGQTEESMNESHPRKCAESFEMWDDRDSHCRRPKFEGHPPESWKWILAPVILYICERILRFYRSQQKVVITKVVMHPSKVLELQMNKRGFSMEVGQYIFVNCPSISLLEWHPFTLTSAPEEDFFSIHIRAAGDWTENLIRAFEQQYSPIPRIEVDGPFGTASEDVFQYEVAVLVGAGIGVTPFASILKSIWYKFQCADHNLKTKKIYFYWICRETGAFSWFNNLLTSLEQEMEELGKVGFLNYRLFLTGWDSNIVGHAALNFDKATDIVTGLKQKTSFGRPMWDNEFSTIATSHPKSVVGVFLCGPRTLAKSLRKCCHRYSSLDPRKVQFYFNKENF
Sequence of human Nox1 (P13498 2-195 partner): as the sequence (P13498 2-195 partner) above

Row | Compound | IC50 [1] [µM] | IC50 [2] [µM] | IC50 [3] [µM] | efflux ratio at 60 min [4] | Papp A→B at 60 min [4] [×10⁻⁶ cm/s] | Papp B→A at 60 min [4] [×10⁻⁶ cm/s] | MR ([5]; a-b direction) [%] | MR ([5]; b-a direction) [%]
1 | COc1cccc(N2CCN(Cc3nc(N)nc(Nc4ccc(C)c(C)c4)n3)CC2)c1 [A, N^2-(3,4-dimethylphenyl)-6-((4-(3-methoxyphenyl)piperazin-1-yl)methyl)-1,3,5-triazine-2,4-diamine] | 66 | 1.68 | 1.68 | 1 | 35 ± 4 | 34 ± 4 | 17 | 12
2 | Cc1cccc(N2CCN(Cc3nc(N)nc(Nc4ccc(C)c(C)c4)n3)CC2)c1 [C, N^2-(3,4-dimethylphenyl)-6-((4-(m-tolyl)piperazin-1-yl)methyl)-1,3,5-triazine-2,4-diamine] | 162 | 59 | 1.68 | 37 | 2.4 ± 0.1 | 89 ± 27 | 37 | 67
3 | Cc1ccc(N2CCN(Cc3nc(N)nc(Nc4ccc(C)c(C)c4)n3)CC2)cc1 [inventive, N^2-(3,4-dimethylphenyl)-6-((4-(p-tolyl)piperazin-1-yl)methyl)-1,3,5-triazine-2,4-diamine] | 66 | – | – | – | 12 ± 1.6 | 43 ± 5.8 | 13 | 14

Second part, the molecule after the results:

Row | IC50 [1] [µM] | IC50 [2] [µM] | IC50 [3] [µM] | efflux ratio at 60 min [4] | Papp A→B at 60 min [4] [×10⁻⁶ cm/s] | Papp B→A at 60 min [4] [×10⁻⁶ cm/s] | MR ([5]; a-b direction) [%] | MR ([5]; b-a direction) [%] | Compound
4 | 22 | 17 | 0.84 | 54 | 0.8 ± 0.2 | 43 ± 5 | 41 | 41 | COc1cccc(N2CCN(Cc3nc(N)nc(Nc4ccc(C)c(Cl)c4)n3)CC2)c1 [B, N^2-(3-chloro-4-methylphenyl)-6-((4-(3-methoxyphenyl)piperazin-1-yl)methyl)-1,3,5-triazine-2,4-diamine]
5 | 200 | 15 | 1.68 | 17 | 1.9 ± 0.2 | 33 ± 11 | 40 | 16 | Cc1ccc(Nc2nc(N)nc(CN3CCN(c4ccc(Cl)cc4)CC3)n2)cc1C [D, 6-((4-(4-chlorophenyl)piperazin-1-yl)methyl)-N^2-(3,4-dimethylphenyl)-1,3,5-triazine-2,4-diamine]
